Reference: a flash point compilation (Sun et al. 2020)

Experiments:
[1] = not given; remark: listed apart in the source
[2] = not given; remark: listed apart in the source
[3] = not given; remark: listed apart in the source
[4] = not given; remark: listed apart in the source
[5] = not given; remark: listed apart in the source

SMILES	flash point [°C]	flash point [1] [°C]	also measured
CC(C)C(=O)OCC(C)(C)C(O)C(C)C (stereo not given)	120.00		
CCCc1cccc(C)c1C [1,2-dimethyl-3-propylbenzene]		72	
C1=CCCC=C1 [1,3-cyclohexadiene]			flash point [2]: 26 °C; flash point [3]: -16 °C
CCc1ccc(C)c(CC)c1 [1,3-diethyl-4-methylbenzene]		72.2	
CCc1ccc(CC)c(C)c1 [1,4-diethyl-2-methylbenzene]		73.0	
CC(C)c1ccc(C(C)C)cc1 [1,4-diisopropylbenzene]		76.1	
CC(O)CNCC(C)O (stereo not given) [1-(2-hydroxypropylamino)propan-2-ol]	126.00		
C=CCCCCCCCCCCCCCCC [1-heptadecene]			flash point [4]: 141 °C; flash point [3]: 135 °C
CCC(C)c1ccc(C)cc1C (stereo not given) [1-sec -butyl-2,4-dimethylbenzene]		81.4	
CCC(C)c1cccc(C)c1 (stereo not given) [1-sec -butyl-3-methylbenzene]		63.1	
Cc1cccc(C(C)(C)C)c1 [1-tert -butyl-3-methylbenzene]		60.6	
C=CCCCCCCCCCCC [1-tridecene]			flash point [4]: 92 °C; flash point [2]: 80 °C; flash point [3]: 79 °C
OCC(F)(F)F [2,2,2-trifluoroethanol]	29.00		
CC(C)C(C)(C)C [2,2,3-trimethylbutane]			flash point [2]: -6 °C; flash point [3]: -24 °C
CCCC(C)C(C)C (stereo not given) [2,3-dimethylhexane]			flash point [2]: -3 °C; flash point [3]: 5 °C
C=CCOCC1CO1 (stereo not given) [2-(allyloxymethyl)oxirane]	48.00		
CC(O)COC(C)COC(C)CO (stereo not given) [2-[2-(2-hydroxypropoxy)propoxy]propan-1-ol]	143.33		
CCc1cc(C)ccc1C [2-ethyl-p -xylene]		56.1	
CCCCCC(C)C [2-methylheptane]			flash point [5]: 4.00 °C; flash point [3]: 5 °C
CC#CCCCCC [2-octyne]			flash point [4]: 24 °C; flash point [2]: 28 °C; flash point [3]: 18 °C
N#Cc1ccccn1 [2-pyridinecarbonitrile]	89.00		

SMILES	flash point [°C]	flash point [1] [°C]	also measured
C=CC(C)(C)C [3,3-dimethyl-1-butene]			flash point [2]: -28 °C; flash point [3]: -29 °C
OCCCOCCCO [3-(3-hydroxypropoxy)propan-1-ol]	123.89		
N#Cc1cccnc1 [3-pyridinecarbonitrile]	84.00		
C=CC=C(C)C [4-methyl-1,3-pentadiene]			flash point [2]: -34 °C; flash point [3]: -18 °C
N#Cc1ccncc1 [4-pyridinecarbonitrile]	88.00		
Cc1ccc(C(C)(C)C)cc1 [4-tert -butyltoluene]		54.1	
CC(C)C(C)c1ccccc1 (stereo not given) [(1,2-dimethylpropyl)benzene]		57.0	
CCCCCC(C)c1ccccc1 (stereo not given) [(1-methylhexyl)benzene]		87.2	
C/C=C\CC [(Z)-pent-2-ene]	-18.00		
CCN(C=O)CC [N,N-diethylformamide]	60.00		
C1CCC(NC2CCCCC2)CC1 [N-cyclohexylcyclohexanamine]	103.00		
OCC#CCO [but-2-yne-1,4-diol]	152.00		
ClCOCCl [chloro-(chloromethoxy)methane]	19.00		
C[C@@H]1CCCC[C@@H]1C [cis-1,2-dimethylcyclohexane]			flash point [2]: 12 °C; flash point [3]: 11 °C
CC(C)c1ccccc1 [cumene]		31.1	
CCOCC [ethoxyethane]	-40.00		flash point [5]: -45.00 °C
CCCCCCCN [heptan-1-amine]	44.00		
CC(C)c1ccccc1 [isopropylbenzene]	46.00		
CCCCC1CCCCC1 [n-butylcyclohexane]			flash point [2]: 41 °C; flash point [3]: 48 °C
CCCC1CCCCC1 [n-propylcyclohexane]			flash point [2]: 35 °C; flash point [3]: 31 °C
CCCCCCCCCO [nonan-1-ol]	80.00		flash point [5]: 74.00 °C

SMILES	flash point [°C]	flash point [1] [°C]	also measured
CCc1ccccc1C [o -ethyltoluene]		39.1	
CCc1ccc(C)cc1 [p -ethyltoluene]		36.1	
Cc1ccc(C)cc1 [p -xylene]		25.1	
CCC(O)CC [pentan-3-ol]	40.00		
NCc1ccccc1 [phenylmethanamine]	72.00		
c1ccc(COCc2ccccc2)cc1 [phenylmethoxymethylbenzene]	135.00		
C=CCN [prop-2-en-1-amine]	-28.00		flash point [5]: -29.00 °C
CC(O)CO (stereo not given) [propane-1,2-diol]	104.44		
CCC(C)c1ccccc1 (stereo not given) [sec -butylbenzene]		52	
C1CCOC1 [tetrahydrofuran]	-25.56		flash point [2]: -21 °C
Cc1ccccc1 [toluene]		7.1	
C[C@H]1CC[C@H](C)CC1 [trans-1,4-dimethylcyclohexane]			flash point [3]: 6 °C
C/C=C/CCCC [trans-2-heptene]			flash point [3]: -6 °C
C/C=C/CCCCC [trans-2-octene]			flash point [3]: 14 °C
C/C=C/CC [trans-2-pentene]			flash point [3]: -45 °C
CC/C=C/CCC [trans-3-heptene]			flash point [3]: -6 °C
CC/C=C/CCCC [trans-3-octene]			flash point [3]: 9 °C
C/C=C/C(C)C [trans-4-methyl-2-pentene]			flash point [3]: -34 °C
CCC/C=C/CCC [trans-4-octene]			flash point [3]: 8 °C
C1CC[C@H]2CCCC[C@@H]2C1 [trans-decalin]			flash point [3]: 52 °C
C=CC1CCCCC1 [vinylcyclohexane]			flash point [3]: 21 °C

More lines, main results first:

flash point [°C]	flash point [1] [°C]	SMILES	also measured
113.00		CC(C)(CO)[C@@H](O)C(=O)NCCCO	
103.00		CO[C@H]1CO[C@H]2[C@@H]1OC[C@H]2OC	
161.00		O=C(OCC1CCC(COC(=O)c2ccccc2)CC1)c1ccccc1 (stereo not given)	
	68.1	Cc1ccc(C(C)C)cc1C [1,2-dimethyl-4-isopropylbenzene]	
	81.1	CCc1cc(CC)cc(CC)c1 [1,3,5-triethylbenzene]	
	70	CCc1cc(C)cc(CC)c1 [1,3-diethyl-5-methylbenzene]	
	67.2	Cc1ccc(C(C)C)c(C)c1 [1,3-dimethyl-4-isopropylbenzene]	
113.00		OC(CBr)CCBr (stereo not given) [1,4-dibromobutan-2-ol]	
	72.5	CCCCc1ccccc1C [1-butyl-2-methylbenzene]	
145.00		O=C1CCCN1C1CCCCC1 [1-cyclohexyl-2-pyrrolidinone]	
	69.7	CCCc1cccc(CC)c1 [1-ethyl-3-propylbenzene]	
	67.4	Cc1ccc(CC(C)C)cc1 [1-isobutyl-4-methylbenzene]	
	65	CCC(C)c1ccc(C)cc1 (stereo not given) [1-sec -butyl-4-methylbenzene]	
	76.0	CCc1ccc(C(C)(C)C)cc1 [1-tert -butyl-4-ethylbenzene]	
60.00		CC(C)CC(C)(C)CO [2,2,4-trimethylpentan-1-ol]	
73.90		CC(C)(O)C#CC(C)(C)O [2,5-dimethylhex-3-yne-2,5-diol]	
127.00		NCCOCCO [2-(2-aminoethoxy)ethanol]	
-34.44		COC(C)(C)C [2-methoxy-2-methylpropane]	
-116.00		C=C(C)C [2-methylprop-1-ene]	
30.00		CC(C)CO [2-methylpropan-1-ol]	flash point [5]: 28.00 °C
-38.00		CC(C)(C)N [2-methylpropan-2-amine]	flash point [5]: 10.00 °C
21.50		CC1CNCC(C)C1 (stereo not given) [3,5-dimethylpiperidine]	
109.00		CCC(C)(O)C#CC(C)(O)CC (stereo not given) [3,6-dimethyloct-4-yne-3,6-diol]	

flash point [°C]	flash point [1] [°C]	SMILES	also measured
51.00		Brc1cccnc1 [3-bromopyridine]	
	58.1	CCc1ccc(C)c(C)c1 [4-ethyl-o -xylene]	
-4.00		C#CCC(C)C [4-methylpent-1-yne]	
103.00		Cc1cccc(N)n1 [6-methyl-2-pyridinamine]	
	74.2	CCCC(CC)c1ccccc1 (stereo not given) [(1-ethylbutyl)benzene]	
	100.1	CCCCCCC(C)c1ccccc1 (stereo not given) [(1-methylheptyl)benzene]	
148.90		OC[C@@H](O)[C@@H](O)[C@H](O)[C@@H](O)CO [(2R,3R,4R,5S)-hexane-1,2,3,4,5,6-hexol]	
128.00		OC/C=C/CO [(E)-but-2-ene-1,4-diol]	
70.00		CCN(CC)C(C)=O [N,N-diethylacetamide]	
-73.30		CC=CC [but-2-ene]	
0.00		C1=CCC=C1 [cyclopenta-1,3-diene]	
57.20		NCCN [ethane-1,2-diamine]	
73.00		CCCCCCCO [heptan-1-ol]	flash point [5]: 77.00 °C
147.00		OCCCCCCO [hexane-1,6-diol]	
	62.1	CC(C)CCc1ccccc1 [isopentylbenzene]	
	47.1	Cc1cccc(C(C)C)c1 [m -cymene]	
	50.1	Cc1ccccc1C(C)C [o -cymene]	
	55.1	CCc1ccccc1CC [o -diethylbenzene]	
	57.8	CCCc1ccccc1C [o -propyltoluene]	
16.00		CCCCCCCC [octane]	flash point [5]: 13.00 °C
	55.1	CCc1ccc(CC)cc1 [p -diethylbenzene]	
	60.7	CCCC(C)c1ccccc1 (stereo not given) [sec -pentylbenzene]	
